Measured values from patent US11981673B1, “7-isopropyl 1,2-dimethyl 3-(substituted benzoyl)indolizine-1,2,7 tricarboxylates as adenosine receptor active compounds” (KING FAISAL UNIVERSITY, priority 2023, dated 2024).

Experiments:
[1] = biological target: T1, human A1R (Homo sapiens, UniProt P30542); assay: Displacement of specific [3H]-CCPA binding at human A1R expressed in CHO cells; details: [3H]-CCPA displacement, means ± SE, read-out: hA1R (Ki nM)
T1 construct: expressed in transfected cells; host or cells: CHO cells
T1 sequence (P30542 1-326): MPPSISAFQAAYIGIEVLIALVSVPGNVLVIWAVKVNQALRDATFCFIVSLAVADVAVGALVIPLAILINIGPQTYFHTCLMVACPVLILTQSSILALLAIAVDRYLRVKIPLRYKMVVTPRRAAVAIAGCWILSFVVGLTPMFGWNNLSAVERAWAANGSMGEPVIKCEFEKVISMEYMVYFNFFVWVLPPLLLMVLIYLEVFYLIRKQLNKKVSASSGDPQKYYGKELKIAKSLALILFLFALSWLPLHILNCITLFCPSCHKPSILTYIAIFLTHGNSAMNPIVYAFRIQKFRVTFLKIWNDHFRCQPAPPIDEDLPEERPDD

[2] = biological target: T2, human A2AR (Homo sapiens, UniProt P29274); assay: Displacement of specific [3H]-NECA binding at human A2AR expressed in CHO cells; details: [3H]-NECA displacement, means ± SE, read-out: hA2AR (Ki nM)
T2 construct: expressed in transfected cells; host or cells: CHO cells
T2 sequence (P29274 whole entry): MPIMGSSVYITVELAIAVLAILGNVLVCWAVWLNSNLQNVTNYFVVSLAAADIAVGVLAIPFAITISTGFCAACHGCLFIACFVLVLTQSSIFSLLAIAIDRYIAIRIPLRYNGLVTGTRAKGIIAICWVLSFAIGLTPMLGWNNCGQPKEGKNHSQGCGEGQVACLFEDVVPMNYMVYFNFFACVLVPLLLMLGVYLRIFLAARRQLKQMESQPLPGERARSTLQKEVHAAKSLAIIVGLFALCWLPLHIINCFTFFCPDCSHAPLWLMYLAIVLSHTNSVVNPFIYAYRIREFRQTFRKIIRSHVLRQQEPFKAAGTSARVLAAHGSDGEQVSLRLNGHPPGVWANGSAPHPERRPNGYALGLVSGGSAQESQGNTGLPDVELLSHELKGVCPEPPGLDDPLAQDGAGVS

[3] = biological target: T3, hA2BR (Homo sapiens, UniProt P29275); assay: Inhibition of NECA-stimulated adenylyl cyclase activity in CHO cells expressing hA2BR (GloSensor cAMP assay); assay type: cell-based; details: means ± SE
T3 construct: expressed in transfected cells; host or cells: cells stably expressing the receptor and the GloSensor biosensor (CHO)
T3 sequence (P29275 1-332): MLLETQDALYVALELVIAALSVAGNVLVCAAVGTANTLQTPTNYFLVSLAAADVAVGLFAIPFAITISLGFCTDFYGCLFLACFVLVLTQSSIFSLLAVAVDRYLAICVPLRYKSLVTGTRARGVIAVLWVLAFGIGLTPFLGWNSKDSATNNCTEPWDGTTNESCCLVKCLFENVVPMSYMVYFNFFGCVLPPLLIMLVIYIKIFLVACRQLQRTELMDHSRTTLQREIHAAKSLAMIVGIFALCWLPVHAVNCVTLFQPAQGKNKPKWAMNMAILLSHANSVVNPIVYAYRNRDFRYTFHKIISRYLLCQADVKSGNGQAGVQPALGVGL
Description: The activity of compounds understudy was evaluated using the GloSensor™ (Promega Corporation) cAMP assay, which is a new non-radioactive method offering a simple approach to monitor GPCR activity through change in the intracellular cAMP concentration. This assay uses a mutant form of Photinus pyralis luciferase into which a cAMP-binding protein moiety has been inserted. The binding with cAMP triggers a biosensor conformational change that leads to an increase of light output allowing to evaluate the activity of ligands at the receptor under study. Following pre-equilibration with a substrate, cells stably expressing both the receptor of interest and the biosensor can be used to evaluate GPCR function enabling easy kinetic measurements of cAMP accumulation or turnover in living cells.
The antagonist profile of the compounds on A2BR was evaluated by assessing their ability to counteract the agonist NECA-induced increase of cAMP accumulation. After 2 hours of equilibration in reaction medium cells were incubated in 384 well plate (10 minutes at room temperature) with 3 μL of different antagonist concentrations and then treated with 3 μL of a fixed dose of NECA. After another 10 minutes of incubation various luminescence reads were performed at different incubation times.

[4] = biological target: T4, human A3R (Homo sapiens, UniProt P0DMS8); assay: Displacement of specific [3H]-HEMADO binding at human A3R expressed in CHO cells; details: [3H]-HEMADO displacement, means ± SE, read-out: hA3R (Ki nM)
T4 construct: expressed in transfected cells; host or cells: CHO cells
T4 sequence (P0DMS8 1-318): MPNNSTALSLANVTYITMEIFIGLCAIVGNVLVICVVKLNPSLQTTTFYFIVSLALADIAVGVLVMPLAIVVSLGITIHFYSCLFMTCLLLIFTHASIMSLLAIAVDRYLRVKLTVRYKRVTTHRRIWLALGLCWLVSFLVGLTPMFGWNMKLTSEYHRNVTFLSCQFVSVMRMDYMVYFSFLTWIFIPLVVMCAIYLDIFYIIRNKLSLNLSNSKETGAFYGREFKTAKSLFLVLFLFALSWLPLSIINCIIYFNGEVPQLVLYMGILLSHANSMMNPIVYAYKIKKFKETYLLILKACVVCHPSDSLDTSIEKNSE

| SMILES | Ki [1] [nM] | Ki [2] [nM] | IC50 [3] [nM] | Ki [4] [nM] |
| --- | --- | --- | --- | --- |
| COC(=O)c1c(C(=O)OC)c2cc(C(=O)OC(C)C)ccn2c1C(=O)c1ccc(F)cc1 [KNV-ISP3, 7-Isopropyl 1,2-dimethyl 3-(4-fluorobenzoyl)indolizine-1,2,7-tricarboxylate] | 2710 ± 388 | 3950 ± 695 | > 30000 | 1400 ± 348 |
| COC(=O)c1c(C(=O)OC)c2cc(C(=O)OC(C)C)ccn2c1C(=O)c1ccc(C)cc1 [KNV-ISP11, 7-Isopropyl 1,2-dimethyl 3-(4-methylbenzoyl)indolizine-1,2,7-tricarboxylate] | 692 ± 41 | 2921 ± 13 | > 30000 | 1600 ± 14 |
| CCOC(=O)c1cc(C(=O)c2ccc(C#N)cc2)n2ccc(C(=O)OC(C)C)cc12 [KNV-ISP10, 1-Ethyl 7-isopropyl 3-(4-cyanobenzoyl)indolizine-1,7-dicarboxylate] | > 30000 | > 30000 | > 30000 | 7670 ± 1730 |
| CCOC(=O)c1cc(C(=O)c2ccc(Cl)cc2)n2ccc(C(=O)OC(C)C)cc12 [KNV-ISP6, 1-Ethyl 7-isopropyl 3-(4-chlorobenzoyl)indolizine-1,7-dicarboxylate] | > 30000 | > 30000 | > 30000 | 14300 ± 480 |
| COC(=O)c1c(C(=O)OC)c2cc(C(=O)OC(C)C)ccn2c1C(=O)c1ccc(C#N)cc1 [KNV-ISP9, 7-Isopropyl 1,2-dimethyl 3-(4-cyanobenzoyl)indolizine-1,2,7-tricarboxylate] | > 30000 | 10300 ± 1340 | > 30000 | 6210 ± 338 |
| COC(=O)c1c(C(=O)OC)c2cc(C(=O)OC(C)C)ccn2c1C(=O)c1ccc(Br)cc1 [KNV-ISP7, 7-Isopropyl 1,2-dimethyl 3-(4-bromobenzoyl)indolizine-1,2,7-tricarboxylate] | 5410 ± 711 | 14900 ± 3750 | > 30000 | 1220 ± 339 |
| CCOC(=O)c1cc(C(=O)c2ccc(Br)cc2)n2ccc(C(=O)OC(C)C)cc12 [KNV-ISP8, 1-Ethyl 7-isopropyl 3-(4-bromobenzoyl)indolizine-1,7-dicarboxylate] | > 30000 | > 30000 | > 30000 | 1680 ± 283 |
| CCOC(=O)c1cc(C(=O)c2ccc(F)cc2)n2ccc(C(=O)OC(C)C)cc12 [KNV-ISP4, 1-Ethyl 7-isopropyl 3-(4-fluorobenzoyl)indolizine-1,7-dicarboxylate] | 6980 ± 577 | > 30000 | > 30000 | 665 ± 26 |
| CCOC(=O)c1cc(C(=O)c2ccccc2)n2ccc(C(=O)OC(C)C)cc12 [KNV-ISP2, 1-Ethyl 7-isopropyl 3-benzoylindolizine-1,7-dicarboxylate] | 7050 ± 706 | > 30000 | > 30000 | 3640 ± 837 |
| COC(=O)c1c(C(=O)OC)c2cc(C(=O)OC(C)C)ccn2c1C(=O)c1ccccc1 [KNV-ISP1, 7-Isopropyl 1,2-dimethyl 3-benzoylindolizine-1,2,7-tricarboxylate] | 1640 ± 37 | 2690 ± 631 | > 30000 | 2200 ± 313 |
| COC(=O)c1c(C(=O)OC)c2cc(C(=O)OC(C)C)ccn2c1C(=O)c1ccc(Cl)cc1 [KNV-ISP5, 7-Isopropyl 1,2-dimethyl 3-(4-chlorobenzoyl)indolizine-1,2,7-tricarboxylate] | 3712 ± 12 | 7400 ± 833 | > 30000 | 7597 ± 29 |
